Reference: ChEMBL document CHEMBL1157437, “Synthesis and biological activities of reveromycin A and spirofungin A derivatives” (Bioorg Med Chem Lett, 2008)
Converted amounts (≈) assume the structure as drawn.

Key:
[1] = biological target: T1, Isoleucine--tRNA ligase, cytoplasmic (Homo sapiens, UniProt P41252); test: Inhibition of IleRS
T1 sequence (P41252 whole entry): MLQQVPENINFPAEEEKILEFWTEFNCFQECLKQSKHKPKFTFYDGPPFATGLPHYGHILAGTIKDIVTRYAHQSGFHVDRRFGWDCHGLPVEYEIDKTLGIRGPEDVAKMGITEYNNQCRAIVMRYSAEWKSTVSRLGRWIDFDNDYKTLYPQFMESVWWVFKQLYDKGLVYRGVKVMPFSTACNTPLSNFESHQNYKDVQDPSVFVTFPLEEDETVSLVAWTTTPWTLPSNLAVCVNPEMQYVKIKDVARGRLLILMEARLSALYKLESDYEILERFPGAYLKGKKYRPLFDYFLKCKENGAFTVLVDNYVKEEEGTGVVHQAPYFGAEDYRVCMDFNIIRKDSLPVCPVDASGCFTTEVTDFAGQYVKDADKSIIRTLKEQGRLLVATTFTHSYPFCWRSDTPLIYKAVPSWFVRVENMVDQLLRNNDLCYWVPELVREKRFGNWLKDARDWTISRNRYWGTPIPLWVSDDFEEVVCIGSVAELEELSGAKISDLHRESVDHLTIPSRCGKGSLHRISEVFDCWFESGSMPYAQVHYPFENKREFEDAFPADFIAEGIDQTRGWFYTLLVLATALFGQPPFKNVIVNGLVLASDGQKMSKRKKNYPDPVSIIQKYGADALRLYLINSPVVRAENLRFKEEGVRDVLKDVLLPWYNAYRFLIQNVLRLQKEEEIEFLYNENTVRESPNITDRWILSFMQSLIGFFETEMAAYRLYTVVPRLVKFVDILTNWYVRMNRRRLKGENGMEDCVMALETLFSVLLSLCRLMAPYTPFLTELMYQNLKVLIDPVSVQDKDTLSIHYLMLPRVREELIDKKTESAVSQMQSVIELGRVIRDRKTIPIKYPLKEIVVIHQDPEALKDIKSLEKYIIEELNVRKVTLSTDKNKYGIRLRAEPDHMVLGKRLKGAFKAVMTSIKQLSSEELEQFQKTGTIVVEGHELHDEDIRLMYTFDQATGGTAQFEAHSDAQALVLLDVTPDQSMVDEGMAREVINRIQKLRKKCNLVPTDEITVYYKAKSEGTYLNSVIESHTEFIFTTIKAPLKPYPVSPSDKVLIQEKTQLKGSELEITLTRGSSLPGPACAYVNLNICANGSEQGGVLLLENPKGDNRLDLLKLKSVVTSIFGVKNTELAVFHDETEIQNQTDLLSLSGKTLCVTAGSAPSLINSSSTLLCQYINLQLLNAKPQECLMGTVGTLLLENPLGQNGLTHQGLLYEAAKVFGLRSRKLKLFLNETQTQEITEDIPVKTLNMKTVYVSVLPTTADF

NRK [2] = test: Effect on morphological reversion in src transformed NRK cells at 100 ug/mL; assay type: functional; conditions: Rattus norvegicus
NRK [3] = test: Effect on morphological reversion in src transformed NRK cells at 30 ug/mL; assay type: functional; conditions: Rattus norvegicus
NRK [4] = test: Effect on morphological reversion in src transformed NRK cells at 10 ug/mL; assay type: functional; conditions: Rattus norvegicus
NRK [5] = test: Effect on morphological reversion in src transformed NRK cells at 3 ug/mL; assay type: functional; conditions: Rattus norvegicus
NRK [6] = test: Effect on morphological reversion in src transformed NRK cells at 1 ug/mL; assay type: functional; conditions: Rattus norvegicus
Osteoclast = test: Induction of apoptosis in mouse osteoclasts; assay type: functional
NRK [7] = test: Effect on morphological reversion in src transformed NRK cells at 0.3 ug/mL; assay type: functional; conditions: Rattus norvegicus
NRK [8] = test: Toxicity against src transformed NRK cells at 100 ug/mL; assay type: cell-based; conditions: rat
NRK [9] = test: […] morphological reversion in src transformed NRK cells; assay type: functional, cell-based; conditions: Rattus norvegicus

Compound	IC50 [1] [µM]	inhibition at 100 µg/mL (NRK [2]) [%]	inhibition at 30 µg/mL (NRK [3]) [%]	inhibition at 10 µg/mL (NRK [4]) [%]	inhibition at 3 µg/mL (NRK [5]) [%]	inhibition at 1 µg/mL (NRK [6]) [%]	Activity (Osteoclast) [µg/mL]	inhibition at 0.3 µg/mL (NRK [7]) [%]	Activity (NRK [8])	EC50 (NRK [9]) [mg/L]
CCCC[C@@]1(OC(=O)CCC(=O)O)CC[C@]2(CC[C@H](C)[C@@H](C/C=C(C)/C=C/[C@H](OC(C)=O)[C@@H](C)/C=C/C(=O)O)O2)O[C@H]1/C=C/C(C)=C/C(=O)O	> 1.42	> 80	> 80	50	< 10	< 10	0.46	–	–	–
CCCC[C@@]1(OC(=O)CCC(=O)O)CC[C@]2(CC[C@H](C)[C@@H](C/C=C(C)/C=C/[C@H](O)[C@@H](C)CO)O2)O[C@H]1/C=C/C(C)=C/C(=O)O	0.0369	> 80	20	< 10	< 10	< 10	6.31	< 10	–	–
CCCC[C@@]1(OC(=O)CCC(=O)OC)CC[C@]2(CC[C@H](C)[C@@H](C/C=C(C)/C=C/[C@H](O)[C@@H](C)/C=C/C(=O)O)O2)O[C@H]1/C=C/C(C)=C/C(=O)O	0.434	> 80	> 80	> 80	> 80	10	2.5	–	–	–
CCCC[C@@]1(OC(=O)CCC(=O)O)CC[C@]2(CC[C@H](C)[C@@H](C/C=C(C)/C=C/[C@H](O)[C@@H](C)/C=C/C(=O)OC)O2)O[C@H]1/C=C/C(C)=C/C(=O)O	0.313	> 80	> 80	> 80	20	< 10	2	–	–	–
CC(/C=C/[C@H](OC(=O)CCC(=O)O)[C@@H](C)/C=C/C(=O)O)=C\C[C@H]1O[C@@]2(CC[C@H](C)[C@H](/C=C/C(C)=C/C(=O)O)O2)CC[C@@H]1C	> 1.66	–	< 10	< 10	< 10	–	12.4	–	Toxic	–
CCCC[C@@]1(OC(=O)CCC(=O)O)CC[C@]2(CC[C@H](C)[C@@H](C/C=C(C)/C=C/[C@H](O)[C@@H](C)/C=C/C(=O)O)O2)O[C@H]1/C=C/C(C)=C/C(=O)OC	> 1.48	> 80	> 80	10	< 10	< 10	3.1	–	–	–
CCCC[C@@]1(OC(=O)CCC(=O)O)CC[C@]2(CC[C@H](C)[C@@H](C/C=C(C)/C=C/[C@@H](O)[C@@H](C)CCC(=O)O)O2)O[C@H]1/C=C/C(C)=C/C(=O)O [2,3-DIHYDRO-5-EPIREVEROMYCIN A]	0.088	50	< 10	< 10	< 10	–	0.82	–	–	–
CCCC[C@@]1(OC(=O)CCC(=O)O)CC[C@]2(CC[C@H](C)[C@@H](C/C=C(C)/C=C/[C@H](O)[C@@H](C)CCC(=O)O)O2)O[C@H]1/C=C/C(C)=C/C(=O)O [2,3-DIHYDROREVEROMYCIN A]	0.0175	> 80	50	20	10	–	0.22	–	–	–
CCCC[C@@]1(OC(=O)CCC(=O)O)CC[C@]2(CC[C@H](C)[C@@H](C/C=C(C)/C=C/[C@H](O)[C@@H](O)/C=C/C(=O)O)O2)O[C@H]1/C=C/C(C)=C/C(=O)O [4-HYDROXY REVEROMYCIN A]	0.0217	> 80	20	10	< 10	< 10	1.01	< 10	–	–
CCCC[C@@]1(OC(=O)CCC(=O)O)CC[C@]2(CC[C@H](C)[C@@H](C/C=C(C)/C=C/[C@@H](O)[C@@H](C)/C=C/C(=O)O)O2)O[C@H]1/C=C/C(C)=C/C(=O)O [5-EPIREVEROMYCIN A]	0.572	< 10	< 10	< 10	< 10	–	21.5	–	–	–
CCCC[C@@]1(OC(=O)CCC(=O)O)CC[C@]2(CC[C@H](C)[C@@H](C/C=C(C)/C=C/[C@H](O)[C@@H](C)/C=C/C(=O)O)O2)O[C@H]1/C=C/C(C)=C/C(=O)O [REVEROMYCIN A]	0.00446	> 80	> 80	50	20	10	0.06	< 10	–	1.58 (≈ 2.39 µM)
CC(/C=C/[C@H](O)[C@@H](C)/C=C/C(=O)O)=C\C[C@H]1O[C@@]2(CC[C@H](C)[C@H](/C=C/C(C)=C/C(=O)O)O2)CC[C@@H]1C [SPIROFUNGIN A]	1.12	> 80	20	10	< 10	–	>30	–	–	–
CC(/C=C/[C@H](O)[C@@H](C)/C=C/C(=O)O)=C\C[C@H]1O[C@]2(CC[C@H](C)[C@H](/C=C/C(C)=C/C(=O)O)O2)CC[C@@H]1C [SPIROFUNGIN B]	> 1.99	< 10	< 10	< 10	< 10	–	>30	–	–	–
